20 compounds from patent US12258338B2, “Modulators of the integrated stress response pathway” (EVOTEC INTERNATIONAL GMBH, priority 2019, dated 2025) can be followed below.

Structures are written as SMILES.

Test [1] concerns the target T1, human ERG potassium channel (hERG) (Homo sapiens, UniProt Q12809).
T1 construct: expressed in transfected cells; host or cells: HEK293, stably transfected, tetracycline-inducible promoter
In words: hERG channel tail current recording using in vitro Rapid ICE (automated patch-clamp, QPatch HTX). It is filed as cell-based. The conditions noted are these: Table 26. The method, then: Protocol—Measure of the Effect on hERG Channel by Tail Current Recording Using In Vitro Rapid ICE
The potency of the example compounds in inhibiting human ERG potassium channel (hERG) tail current was assessed in a recombinant HEK293 cell line stably transfected with hERG cDNA under an inducible promoter, using Rapid ICE (rapid ion channel electrophysiology) assay. Rapid ICE is an automated patch-clamp assay utilizing the QPatch HTX system (Sophion Bioscience A/S). Briefly, inducible HEK hERG cells were cultivated in minimum essential medium supplemented with 10% FBS, 1% non-essential amino acids, 1% sodium pyruvate, 2 mM 1-glutamine, 15 μg/mL blasticidin, and 100 μg/mL hygromycin. hERG channel expression induction was obtained by adding 10 μg/mL tetracycline for 24, 48, or 72 h before recordings.
On the day of the experiment, cells were detached with TrypLE and prepared to be loaded on the instrument. Cells were resuspended in 7 mL of Serum-Free Media containing 25 mM Hepes and soybean trypsin inhibitor and immediately placed in the cell storage tank of the machine. The composition of the extracellular buffer was (mM): NaCl 137, KCl 4, CaCl2 1.8, MgCl2 1.0, d-glucose 10, N-2-hydroxyethylpiperazine-N′-2-ethanesulfonic acid (HEPES) 10, pH 7.4 with 1 M NaOH. The composition of the intracellular solution was (mM): KCl 130, MgCl2 1.0, ethylene glycol-bis(β-aminoethyl ether)-N,N,N′,N′-tetraacetic acid (EGTA) 5, MgATP 5, HEPES 10, pH 7.2 with 1 M KOH. The voltage protocol included the following steps: step from −80 to −50 mV for 200 ms, +20 mV for 4.8 s, step to −50 mV for 5 s, then step to the holding potential of −80 mV. Compounds were dissolved in DMSO and diluted in extracellular buffer to achieve final test concentrations (0.3, 3, and 30 μM) in 0.3% DMSO. The voltage protocol was run and recorded continuously during the experiment. The vehicle, corresponding to 0.3% DMSO in extracellular buffer was then applied for 3 min, followed by the test substance in triplicate. The standard combined exposure time was 5 min. The average of tail current amplitude values recorded from four sequential voltage pulses was used to calculate for each cell the effect of the test substance by calculating the residual current (% control) compared with vehicle pretreatment. Data were reported as % inhibition for each concentration tested, and IC50 values were estimated using QPatch software. At least two cells were tested, and even more if results diverged.
A general note: The hERG channel carries a current that helps repolarise heart muscle cells.

For the next test, the system named is ATF4. The experiment in a line: HEK-ATF4 High Content Imaging assay (prevention of Tunicamycin induced ISR; ATF4 signal ratio between nucleus and cytoplasm). It is filed as cell-based. Particulars: Homo sapiens; Wild-type HEK293 cells, Tunicamycin induced ISR, 6 h; read-out: IIEK-ATF4 Activity. The method, then: HEK-ATF4 High Content Imaging Assay
Example compounds were tested in the HEK-ATF4 High Content Imaging assay to assess their pharmacological potency to prevent Tunicamycin induced ISR. Wild-type HEK293 cells were plated in 384-well imaging assay plates at a density of 12,000 cells per well in growth medium (containing DMEM/F12, 10% FBS, 2 mM L-Glutamine, 100 U/mL Penicillin-100 μg/mL Streptomycin) and incubated at 37° C., 5% CO2. 24 h later, the medium was changed to 50 μL assay medium per well (DMEM/F12, 0.3% FBS, 2 mM L-Glutamine, 100 U/mL Penicillin-100 μg/mL Streptomycin). Example compounds were serially diluted in DMSO, spotted into intermediate plates and prediluted with assay medium containing 3.3 μM Tunicamycin to give an 11-fold excess of final assay concentration. In addition to the example compound testing area, the plates also contained multiples of control wells for assay normalization purposes, wells containing Tunicamycin but no example compounds (High control), as well as wells containing neither example compound nor Tunicamycin (Low control). The assay was started by transferring 5 μL from the intermediate plate into the assay plates, followed by incubation for 6 h at 37° C., 5% CO2. Subsequently, cells were fixed (4% PFA in PBS, 20 min at r.t.) and submitted to indirect ATF4 immunofluorescence staining (primary antibody rabbit anti ATF4, clone D4B8, Cell Signaling Technologies; secondary antibody Alexa Fluor 488 goat anti-rabbit IgG (H+L), Thermofisher Scientific). Nuclei were stained using Hoechst dye (Thermofisher Scientific), and plates were imaged on an Opera Phenix High Content imaging platform equipped with 405 nm and 488 nm excitation. Finally, images were analyzed using script based algorithms. The main readout HEK-ATF4 monitored the ATF4 signal ratio between nucleus and cytoplasm. Tunicamycin induced an increase in the overall ATF4 ratio signal, which was prevented by ISR modulating example compounds. In addition, HEK-CellCount readout was derived from counting the number of stained nuclei corresponding to healthy cells. This readout served as an internal toxicity control.

T1 sequence (Q12809 whole entry): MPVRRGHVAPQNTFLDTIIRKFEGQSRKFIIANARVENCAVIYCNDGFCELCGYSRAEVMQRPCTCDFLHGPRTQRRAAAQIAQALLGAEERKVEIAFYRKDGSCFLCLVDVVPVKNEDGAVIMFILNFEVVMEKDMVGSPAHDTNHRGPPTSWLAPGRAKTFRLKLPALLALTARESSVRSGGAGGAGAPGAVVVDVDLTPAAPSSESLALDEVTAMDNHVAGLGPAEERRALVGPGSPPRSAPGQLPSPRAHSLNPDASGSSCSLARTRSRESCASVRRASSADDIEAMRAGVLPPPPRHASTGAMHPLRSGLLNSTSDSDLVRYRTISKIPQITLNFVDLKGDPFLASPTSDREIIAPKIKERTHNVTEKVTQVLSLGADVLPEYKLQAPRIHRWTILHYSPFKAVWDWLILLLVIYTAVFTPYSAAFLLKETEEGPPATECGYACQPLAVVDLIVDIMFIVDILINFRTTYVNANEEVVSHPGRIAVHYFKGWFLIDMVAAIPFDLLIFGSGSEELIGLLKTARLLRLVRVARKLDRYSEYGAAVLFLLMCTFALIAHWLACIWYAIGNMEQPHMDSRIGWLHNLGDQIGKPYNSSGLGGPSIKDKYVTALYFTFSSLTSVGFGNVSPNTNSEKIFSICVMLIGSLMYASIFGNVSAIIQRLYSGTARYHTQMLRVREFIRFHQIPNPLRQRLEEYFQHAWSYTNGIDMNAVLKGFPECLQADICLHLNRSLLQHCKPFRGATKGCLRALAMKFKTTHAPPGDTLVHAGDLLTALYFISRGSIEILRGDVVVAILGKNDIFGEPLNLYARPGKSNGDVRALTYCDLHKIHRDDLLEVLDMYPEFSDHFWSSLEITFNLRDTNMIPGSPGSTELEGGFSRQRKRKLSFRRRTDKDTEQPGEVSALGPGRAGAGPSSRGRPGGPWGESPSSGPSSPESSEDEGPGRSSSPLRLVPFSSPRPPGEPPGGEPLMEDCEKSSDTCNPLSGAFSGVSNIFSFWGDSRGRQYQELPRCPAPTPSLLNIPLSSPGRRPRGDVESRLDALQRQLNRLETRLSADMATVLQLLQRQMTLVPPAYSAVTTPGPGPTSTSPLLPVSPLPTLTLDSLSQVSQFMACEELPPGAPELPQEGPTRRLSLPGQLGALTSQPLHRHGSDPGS

Take `O=C(COc1ccc(Cl)c(F)c1)N[C@@H]1CN[C@@H](c2nnc(-c3ccc(Cl)cc3)o2)C1` [Example 31, 2-(4-chloro-3-fluorophenoxy)-N-[(3S,5R)-5-[5-(4-chlorophenyl)-1,3,4-oxadiazol-2-yl]pyrrolidin-3-yl]acetamide]: the results for the IC50 (in test [1]; in the test with ATF4) were 1 to 1000 nM and 2000 to 15000 nM, respectively.
The corresponding values for `CN1C[C@H](NC(=O)COc2ccc(Cl)c(F)c2)CC[C@H]1c1nnc(-c2ccc(Cl)cc2)o1` [Example 44, 2-(4-chloro-3-fluorophenoxy)-N-[(3R,6S)-6-[5-(4-chlorophenyl)-1,3,4-oxadiazol-2-yl]-1-methylpiperidin-3-yl]acetamide] are 1 to 1000 nM and 1 to 500 nM.
As for `O=C(COc1ccc(Cl)c(F)c1)N[C@H]1CC[C@H](c2nnc(-c3ccc(Cl)c(F)c3)o2)NC1` [Example 54, 2-(4-chloro-3-fluorophenoxy)-N-[(3S,6R)-6-[5-(4-chloro-3-fluorophenyl)-1,3,4-oxadiazol-2-yl]piperidin-3-yl]acetamide], the IC50 was 1 to 1000 nM in test [1] and 1 to 500 nM in the test with ATF4.
The corresponding values for `O=C(COc1ccc(Cl)c(F)c1)N[C@H]1CC[C@H](c2nnc(OCCC(F)(F)F)o2)NC1` [Example 33, 2-(4-chloro-3-fluorophenoxy)-N-[(3S,6R)-6-[5-(3,3,3-trifluoropropoxy)-1,3,4-oxadiazol-2-yl]piperidin-3-yl]acetamide] are 1000 to 5000 nM and 1 to 500 nM.
For `CCCCCOc1nnc([C@H]2CC[C@H](NC(=O)COc3ccc(Cl)c(F)c3)CN2)o1` [Example 78, 2-(4-chloro-3-fluorophenoxy)-N-[(3S,6R)-6-[5-(pentyloxy)-1,3,4-oxadiazol-2-yl]piperidin-3-yl]acetamide], in that order: 1000 to 5000 nM and 1 to 500 nM.
For `COc1cc(OCC(=O)N[C@H]2CC[C@H](c3nnc(OCCOC(F)(F)F)o3)NC2)ccc1C(F)(F)F` [Example 15, 2-[3-methoxy-4-(trifluoromethyl)phenoxy]-N-[(3S,6R)-6-{5-[2-(trifluoromethoxy)ethoxy]-1,3,4-oxadiazol-2-yl}piperidin-3-yl]acetamide], in that order: over 5000 nM and 1 to 500 nM.
Turning to `CN(CCOC(F)(F)F)c1nnc([C@H]2CC[C@H](NC(=O)COc3ccc(Cl)c(F)c3)CN2)o1` [Example 94, 2-(4-chloro-3-fluorophenoxy)-N-[(3S,6R)-6-(5-{methyl[2-(trifluoromethoxy)ethyl]amino}-1,3,4-oxadiazol-2-yl)piperidin-3-yl]acetamide], the values for the IC50 (in test [1]; in the test on ATF4) were over 5000 nM and 2000 to 15000 nM, respectively.
In the case of `O=C(COc1ccc(Cl)c(F)c1)N[C@H]1CC[C@H](c2nnc(OCC3CC3C(F)(F)F)o2)NC1` (stereo partly drawn) [Example 88, 2-(4-chloro-3-fluorophenoxy)-N-[(3S,6R)-6-(5-{[2-(trifluoromethyl)cyclopropyl]methoxy}-1,3,4-oxadiazol-2-yl)piperidin-3-yl]acetamide], the IC50 in test [1] was 1000 to 5000 nM; in the test on ATF4, 500 to 2000 nM.
For `C[C@@H](Oc1ccc(Cl)cc1)C(=O)N[C@H]1CC[C@H](c2nnc(-c3ccc(C(F)(F)F)cc3)o2)NC1` (single isomer, unassigned) [Example 106], in that order: 1000 to 5000 nM and 2000 to 15000 nM.
The corresponding values for `O=C(COc1ccc(Cl)c(F)c1)N[C@H]1CC[C@H](c2nnc(N3CC(OC(F)(F)F)C3)o2)NC1` [Example 91, 2-(4-chloro-3-fluorophenoxy)-N-[(3S,6R)-6-{5-[3-(trifluoromethoxy)azetidin-1-yl]-1,3,4-oxadiazol-2-yl}piperidin-3-yl]acetamide] are 1000 to 5000 nM and 1 to 500 nM.
For `O=C(COc1ccc(C(F)(F)F)c(Cl)c1)N[C@H]1CC[C@H](c2nnc([C@H]3C[C@@H](OC(F)(F)F)C3)o2)NC1` [Example 10, 2-[3-chloro-4-(trifluoromethyl)phenoxy]-N-[(3S,6R)-6-{5-[(1s,3s)-3-(trifluoromethoxy)cyclobutyl]-1,3,4-oxadiazol-2-yl}piperidin-3-yl]acetamide], in that order: 1000 to 5000 nM and 1 to 500 nM.
In the case of `CCCCOc1nnc([C@H]2CC[C@H](NC(=O)COc3ccc(Cl)c(F)c3)CN2)o1` [Example 67, N-[(3S,6R)-6-(5-butoxy-1,3,4-oxadiazol-2-yl)piperidin-3-yl]-2-(4-chloro-3-fluorophenoxy)acetamide], the IC50 in test [1] is 1000 to 5000 nM; with ATF4, 1 to 500 nM.
Regarding `CCN1C[C@H](NC(=O)COc2ccc(Cl)c(F)c2)CC[C@H]1c1nnc(-c2ccc(Cl)cc2)o1` [Example 47, 2-(4-chloro-3-fluorophenoxy)-N-[(3R,6S)-6-[5-(4-chlorophenyl)-1,3,4-oxadiazol-2-yl]-1-ethylpiperidin-3-yl]acetamide], the IC50 in test [1] fell in the range of 1 to 1000 nM; with ATF4, 1 to 500 nM.
The corresponding values for `CN1C[C@@H](NC(=O)COc2ccc(Cl)c(F)c2)CC[C@@H]1c1nnc(-c2ccc(Cl)cc2)o1` [Example 45, 2-(4-chloro-3-fluorophenoxy)-N-[(3S,6R)-6-[5-(4-chlorophenyl)-1,3,4-oxadiazol-2-yl]-1-methylpiperidin-3-yl]acetamide] are 1 to 1000 nM and 1 to 500 nM.
For `O=C(COc1ccc(Cl)c(F)c1)N[C@H]1CC[C@H](c2nnc([C@H]3C[C@@H](OC4CC4)C3)o2)NC1` (single isomer, unassigned) [Example 105], the IC50 is over 5000 nM in test [1] and 500 to 2000 nM in the test with ATF4.
`O=C(COc1cnc(Cl)c(F)c1)N[C@H]1CC[C@H](c2nnc(-c3ccc(Cl)cc3)o2)NC1` [Example 7, 2-[(6-chloro-5-fluoropyridin-3-yl)oxy]-N-[(3S,6R)-6-[5-(4-chlorophenyl)-1,3,4-oxadiazol-2-yl]piperidin-3-yl]acetamide]: the IC50 lay within 1 to 1000 nM in test [1] and 1 to 500 nM in the test with ATF4.
For `O=C(COc1ccc(Cl)c(F)c1)N[C@H]1CC[C@H](c2nnc(OCCO[C@H]3CC3(F)F)o2)NC1` (single isomer, unassigned) [Example 103], in that order: over 5000 nM and 1 to 500 nM.
The corresponding values for `O=C(COc1ccc(Cl)c(F)c1)N[C@H]1CC[C@H](c2nnc(OCCOC3CC3)o2)NC1` [Example 80, 2-(4-chloro-3-fluorophenoxy)-N-[(3S,6R)-6-[5-(2-cyclopropoxythoxy)-1,3,4-oxadiazol-2-yl]piperidin-3-yl]acetamide] are over 5000 nM and 1 to 500 nM.
With `O=C(COc1ccc(Cl)c(F)c1)N[C@H]1CC[C@H](c2nnc(OC3CC(F)(F)C3)o2)NC1` [Example 72, 2-(4-chloro-3-fluorophenoxy)-N-[(3S,6R)-6-[5-(3,3-difluorocyclobutoxy)-1,3,4-oxadiazol-2-yl]piperidin-3-yl]acetamide], the values for the IC50 (in test [1]; in the test on ATF4) were 1000 to 5000 nM and 2000 to 15000 nM, respectively.
In the case of `O=C(COc1ccc(Cl)c(F)c1)N[C@H]1CC[C@H](c2nnc(-c3ccc(C(F)(F)F)cc3)o2)NC1` [Example 2, 2-(4-chloro-3-fluorophenoxy)-N-[(3S,6R)-6-{5-[4-(trifluoromethyl)phenyl]-1,3,4-oxadiazol-2-yl}piperidin-3-yl]acetamide], the values for the IC50 (in test [1]; in the test on ATF4) were 1 to 1000 nM and 1 to 500 nM, respectively.
